Tests used:
PI3K (p110α) = target: T1, PI3K (p110α) (Homo sapiens, UniProt P42336); assay: ADP-Glo Assay I, in vitro enzyme activity; type: biochemical; settings: 0.33 nM PI3Kalpha
T1 construct: purchased Millipore 14-602-K
Procedure: The test compounds were diluted with a three-fold concentration gradient, and 10 concentrations (10000 nM to 0.5 nM) were obtained in total.
50 nL of the test compounds of the present invention was transferred to a reaction plate (PerkinElmer #6007299), and added with 3 μL of an enzyme/substrate mixture (0.33 nM PI3Kalpha, Millipore #14-602-K/166.5 μM PIP2); after incubation for 20 min, 2 μL of an ATP solution (100 μM) was added to initiate the reaction; after 2 hours of reaction at room temperature, the kinase reaction was stopped by adding 5 μL ADP-Glo reagent, followed by incubation at room temperature for 60 min, allowing the remaining unreacted ATP to be completely digested; and the resulting solution was added with 10 μL of a kinase detection reagent and incubated at room temperature for 40 min, and then the […] was read on Envision. PIP2, ATP, the ADP-Glo reagent, and the kinase assay reagents are all from an ADP-Glo Kinase Assay Kit (Promega #V1792).
IC50 was calculated using the standard 4-parameter fitting method (Model 205, XL-fit, iDBS).

PI3Kα = PI3Kα (Homo sapiens, UniProt P42336); assay: ADP-Glo Assay II, PI3Kα; type: biochemical; settings: read-out: IC50 for inhibition of PI3Kα activity
Procedure: (§1) 1) The compound was diluted using Echo from Labcyte company, 50 nL of the compound was transferred into an assay plate, and centrifuged at a speed of 1000 rpm for 10 sec.
(§2) 2) A kinase/lipid substrate mixed solution and a kinase reaction buffer/lipid substrate mixed solution were prepared; the kinase/lipid substrate mixed solution was added into columns 3-24 of the assay plate, 3 μL per well; the kinase reaction buffer/lipid substrate mixed solution was added into columns 1-2 of the assay plat, 3 μL per well; and the plate was centrifuged at a speed of 1000 rpm for 10 sec.
(§3) 3) An ATP solution was prepared, and added into the assay plate, 2 μL per well; the plate was centrifuged at a speed of 1000 rpm for 10 sec, shaken and mixed in 2nd gear mode on a plate shaker for 1 min, further centrifuged at a speed of 1000 rpm for 10 sec, and incubated for 120 min at 23° C. […]
(§4) 5) A kinase detection reagent was prepared, added into the assay plate, 10 μL per well; the plate was centrifuged at a speed of 1000 rpm for 10 sec, shaken and mixed in 2nd gear mode on a plate shaker for 1 min, further centrifuged at a speed of 1000 rpm for 10 sec, incubated for 30 min at 23° C.; and then read on the multi-marker detector Envision.
IC50 results were analyzed by XLfit5 (Formula 205) of IDBS company.

PI3Kγ = PI3Kγ (Homo sapiens, UniProt P48736); assay: ADP-Glo Assay II, PI3Kγ; type: biochemical; settings: read-out: IC50 for inhibition of PI3Kγ activity
Procedure: as §1, §2, §3, §4

MCF-7 cells = assay: In vitro test of cell activity, insulin-stimulated MCF-7 cells, ELISA-One; type: cell-based; settings: Homo sapiens, MCF7, 2 hours compound, insulin 30 minutes
Procedure: 1) MCF-7 cells were inoculated at the density of 2.5×10^4 cells/well into 96-well plates (the culture medium used should be a complete culture medium containing 10% FBS).
2) On the next day, the medium in each well was drawn out.
3) Insulin was dissolved in a culture medium without serum, added to the cultured cells and incubated for 30 minutes, wherein the final concentration of insulin was 10 mg/mL.
4) A lysis solution was prepared according to the following method during the waiting period for the reaction: • a) Enhancer solution was removed from the refrigerator to melt in advance. • b) Enhancer solution was diluted 10-fold with the 5× Lysis Buffer to give a concentrated lysis solution. • c) The concentrated lysis solution was diluted 5-fold with double distilled water to give the lysis solution.
5) The medium in each well was completely removed and each well was quickly rinsed with PBS once.
6) 150 μL of the freshly prepared lysis solution was added to each well and shaken at room temperature for 10 min.
7) After confirming that all cells were detached, the lysis solution together with cell debris was transferred into a 1.5 mL tube. […]
9) The number of strips of ELISA-one micro-well plate that is required was calculated. […]
15) The corresponding ELISA-One filter group was assembled and used to read the fluorescence signal intensity.

PI3Kγ, sequence (P48736 whole entry): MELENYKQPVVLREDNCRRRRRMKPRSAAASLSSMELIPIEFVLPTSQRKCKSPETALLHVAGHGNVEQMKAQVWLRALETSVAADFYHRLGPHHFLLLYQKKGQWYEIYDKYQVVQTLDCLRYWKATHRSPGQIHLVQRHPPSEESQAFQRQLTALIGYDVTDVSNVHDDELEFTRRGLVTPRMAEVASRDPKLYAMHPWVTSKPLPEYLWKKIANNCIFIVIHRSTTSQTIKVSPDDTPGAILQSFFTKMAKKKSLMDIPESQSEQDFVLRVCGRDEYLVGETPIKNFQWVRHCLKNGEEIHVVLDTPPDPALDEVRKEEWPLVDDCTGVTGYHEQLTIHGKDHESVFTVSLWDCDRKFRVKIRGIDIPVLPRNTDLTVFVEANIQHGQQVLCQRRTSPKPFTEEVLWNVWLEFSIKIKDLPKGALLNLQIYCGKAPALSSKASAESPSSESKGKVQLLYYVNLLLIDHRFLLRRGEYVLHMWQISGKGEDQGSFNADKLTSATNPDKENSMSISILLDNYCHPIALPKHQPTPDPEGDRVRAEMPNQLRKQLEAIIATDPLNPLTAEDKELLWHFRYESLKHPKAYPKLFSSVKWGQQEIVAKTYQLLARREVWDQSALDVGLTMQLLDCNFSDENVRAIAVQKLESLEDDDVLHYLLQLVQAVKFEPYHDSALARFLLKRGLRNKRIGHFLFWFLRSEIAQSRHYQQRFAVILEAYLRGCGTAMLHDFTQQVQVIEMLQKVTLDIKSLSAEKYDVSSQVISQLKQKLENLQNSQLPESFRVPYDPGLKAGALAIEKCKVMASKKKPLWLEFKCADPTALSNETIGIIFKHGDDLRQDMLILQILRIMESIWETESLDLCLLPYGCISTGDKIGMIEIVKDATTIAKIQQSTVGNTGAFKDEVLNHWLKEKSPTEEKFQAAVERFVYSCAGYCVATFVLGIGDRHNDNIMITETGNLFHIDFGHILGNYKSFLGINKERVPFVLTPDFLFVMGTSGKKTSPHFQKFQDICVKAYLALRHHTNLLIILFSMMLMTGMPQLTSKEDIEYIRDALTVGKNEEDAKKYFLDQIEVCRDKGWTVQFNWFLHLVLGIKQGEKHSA
T1 sequence (P42336 whole entry): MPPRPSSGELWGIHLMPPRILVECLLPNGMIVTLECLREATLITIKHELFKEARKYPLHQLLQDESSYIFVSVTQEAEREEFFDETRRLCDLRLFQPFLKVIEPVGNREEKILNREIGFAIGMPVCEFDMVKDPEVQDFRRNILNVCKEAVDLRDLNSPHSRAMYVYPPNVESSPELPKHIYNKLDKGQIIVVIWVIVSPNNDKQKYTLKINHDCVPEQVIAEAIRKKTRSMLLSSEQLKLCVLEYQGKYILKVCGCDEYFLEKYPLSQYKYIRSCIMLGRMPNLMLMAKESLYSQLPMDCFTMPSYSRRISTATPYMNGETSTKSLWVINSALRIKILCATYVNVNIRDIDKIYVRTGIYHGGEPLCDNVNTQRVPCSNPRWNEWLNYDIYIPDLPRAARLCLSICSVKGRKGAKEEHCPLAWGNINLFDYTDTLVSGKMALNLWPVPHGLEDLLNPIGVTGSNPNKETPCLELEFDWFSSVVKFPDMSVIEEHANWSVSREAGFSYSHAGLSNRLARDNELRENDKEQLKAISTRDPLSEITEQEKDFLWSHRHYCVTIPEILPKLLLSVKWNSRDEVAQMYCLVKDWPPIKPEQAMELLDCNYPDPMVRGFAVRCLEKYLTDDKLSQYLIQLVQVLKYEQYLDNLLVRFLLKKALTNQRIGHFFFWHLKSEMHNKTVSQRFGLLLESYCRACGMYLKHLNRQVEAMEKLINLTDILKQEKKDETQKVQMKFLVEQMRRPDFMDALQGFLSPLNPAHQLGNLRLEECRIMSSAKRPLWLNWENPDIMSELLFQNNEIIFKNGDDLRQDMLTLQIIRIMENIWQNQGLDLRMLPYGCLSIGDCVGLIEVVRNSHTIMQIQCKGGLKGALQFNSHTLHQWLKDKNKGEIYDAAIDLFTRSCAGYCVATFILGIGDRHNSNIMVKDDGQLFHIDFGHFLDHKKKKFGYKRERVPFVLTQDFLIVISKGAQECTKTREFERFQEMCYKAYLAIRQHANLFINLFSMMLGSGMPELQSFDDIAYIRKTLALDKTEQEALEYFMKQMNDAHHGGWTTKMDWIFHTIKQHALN
T1 sequence (P27986 whole entry partner): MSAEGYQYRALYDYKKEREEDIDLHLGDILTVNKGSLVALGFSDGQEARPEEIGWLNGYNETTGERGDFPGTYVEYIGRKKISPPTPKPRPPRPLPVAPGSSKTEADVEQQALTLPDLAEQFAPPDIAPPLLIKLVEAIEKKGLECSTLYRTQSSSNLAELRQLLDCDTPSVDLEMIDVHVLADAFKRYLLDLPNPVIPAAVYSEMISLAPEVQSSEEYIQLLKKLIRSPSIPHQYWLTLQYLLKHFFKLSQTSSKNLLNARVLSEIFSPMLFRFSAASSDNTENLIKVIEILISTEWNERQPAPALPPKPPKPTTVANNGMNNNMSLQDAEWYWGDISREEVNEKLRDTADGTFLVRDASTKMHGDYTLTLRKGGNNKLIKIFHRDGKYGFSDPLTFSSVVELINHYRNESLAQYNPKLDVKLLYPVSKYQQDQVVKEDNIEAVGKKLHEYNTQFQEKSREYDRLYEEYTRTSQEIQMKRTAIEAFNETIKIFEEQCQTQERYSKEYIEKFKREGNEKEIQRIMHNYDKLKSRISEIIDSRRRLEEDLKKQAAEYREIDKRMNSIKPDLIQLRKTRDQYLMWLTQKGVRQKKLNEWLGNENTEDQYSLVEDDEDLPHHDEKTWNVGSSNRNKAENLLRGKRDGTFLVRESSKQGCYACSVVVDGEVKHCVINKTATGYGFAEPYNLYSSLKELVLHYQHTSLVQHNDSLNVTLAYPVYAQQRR
PI3Kα, sequence (P42336 whole entry): as the sequence (P42336 whole entry) above
PI3Kα, sequence (P27986 whole entry partner): as the sequence (P27986 whole entry partner) above

COc1ncc(-c2ccc3ncc(OCCN(C)C)c(=O)n3c2)cc1NS(=O)(=O)c1ccc(F)cc1Cl [Compound 1]
IC50 (PI3K (p110α)): ≤ 1 nM | IC50 (PI3Kα): 0.6 ± 0.2 nM | IC50 (PI3Kγ): 7 ± 0.9 nM | IC50 (MCF-7 cells): ≤ 50 nM

From US10479789B2, “Pyrido[1,2-A]pyrimidone analog, crystal form thereof, intermediate thereof and preparation method therefor” (Chia Tai Tianqing Pharmaceutical Group Co., Ltd., priority 2015, dated 2019)
